Like-named read-outs stand apart in the source and are kept apart here.
Biological target: DP IV (Homo sapiens, UniProt P27487)
Experiment: DP IV inhibition IC50, parallel-synthesis compounds tested directly following synthesis (without purification)
Type: biochemical
Parameters: IC50 DP4; other: tested directly following parallel synthesis, without purification; compounds of formula (Ib) from parallel synthesis, tested directly following synthesis
In short: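 Porcine kidney or recombinant human enzyme (~40-50 μU/ml, HEPES buffer) hydrolysing Gly-Pro-pNA at room temperature, with 5% DMSO final; 11-point 1:2 dilutions from 100 μM final, in duplicate. pNA release read at 405 nm over ~18 min; slopes vs solvent control give residual activity, and IC50 comes from a 4-parameter fit.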

[1] = DP IV inhibition, compounds of formula (Ib) from parallel synthesis, tested directly following synthesis (without purification), read-out: IC50
[2] = tested directly following parallel synthesis, without purification, read-out: IC50 DP4

NCc1c(-c2ccc(Cl)cc2Cl)ncn1CCc1ccccc1F [83b, C-{5-(2,4-Dichloro-phenyl)-3-[2-(2-fluoro-phenyl)-ethyl]-3H-imidazol-4-yl}-methylamine]
IC50 [1]: 5.5 µM

NCc1c(-c2ccc(F)cc2F)ncn1Cc1cc(Br)ccc1F [Example 79a, C-[3-(5-Bro-mo-2-fluoro-benzyl)-5-(2,4-difluoro-phenyl)-3H-imid-azol-4-yl]-methyl-amine]
IC50 [2]: 32.5 µM

NCc1c(-c2ccc(F)cc2Cl)ncn1Cc1ccc(Cl)c(Cl)c1 [Example 25a, C-[5-(2-Chloro-4-fluoro-phenyl)-3-(3,4-di-chloro-benzyl)-3H-imid-azol-4-yl]-methyl-amine]
IC50 [2]: 33.4 µM

CCOc1ccccc1Cn1cnc(-c2ccc(C)cc2C)c1CN [Example 70a, C-[5-(2,4-Dimethyl-phenyl)-3-(2-ethoxy-benzyl)-3H-imid-azol-4-yl]-methyl-amine]
IC50 [2]: 16.3 µM

NCc1c(-c2ccc(F)cc2Cl)ncn1Cc1ccsc1 [Example 11a, C-[5-(2-Chloro-4-fluoro-phenyl)-3-thiophen-3-ylmethyl-3H-imidazol-4-yl]-methylamine]
IC50 [2]: 4.6 µM

NCc1c(-c2ccc(Cl)cc2Cl)ncn1Cc1cc(Br)ccc1F [124b, C-[3-(5-Bromo-2-fluoro-benzyl)-5-(2,4-dichloro-phenyl)-3H-imidazol-4-yl]-methylamine]
IC50 [1]: 34.3 µM

NCc1c(-c2ccc(Cl)cc2Cl)ncn1Cc1ccc(F)c(F)c1 [Example 49a, C-[5-(2,4-Dichloro-phenyl)-3-(3,4-difluoro-benzyl)-3H-imid-azol-4-yl]-methyl-amine]
IC50 [2]: 0.1 µM

CCCn1cnc(-c2ccc(Cl)cc2Cl)c1CN [86b, C-[5-(2,4-Dichloro-phenyl)-3-propyl-3H-imidazol-4-yl]-methylamine]
IC50 [1]: 17.2 µM

NCc1c(-c2ccc(Cl)cc2Cl)ncn1Cc1ccccn1 [Example 65a, C-[5-(2,4-Dichloro-phenyl)-3-pyri-din-2-yl-methyl-3H-imid-azol-4-yl]-methyl-amine]
IC50 [2]: 1.9 µM

NCc1c(-c2ccc(F)cc2F)ncn1Cc1ccc(F)cc1 [Example 74a, C-[5-(2,4-Difluoro-phenyl)-3-(4-fluoro-benzyl)-3H-imid-azol-4-yl]-methyl-amine]
IC50 [2]: 44.2 µM

CC(N)c1c(-c2ccc(Cl)cc2Cl)ncn1CCc1cccc(Cl)c1 (centres unmarked) [64b, 1-[3-[2-(3-Chloro-phenyl)-ethyl]-5-(2,4-dichloro-phenyl)-3H-imidazol-4-yl]-ethylamine]
IC50 [1]: 28.9 µM

NCc1c(-c2ccc(Cl)cc2Cl)ncn1CCc1ccccc1 [57b, C-[5-(2,4-Dichloro-phenyl)-3-phenethyl-3H-imidazol-4-yl]-methylamine]
IC50 [1]: 9.1 µM

NCc1c(-c2ccc(F)cc2Cl)ncn1Cc1ccccc1 [Example 15, C-[3-Benzyl-5-(2-chloro-4-fluoro-phenyl)-3H-imid-azol-4-yl]-methyl-amine]
IC50 [2]: 10.9 µM

NCc1c(-c2ccc(Cl)cc2Cl)ncn1Cc1cc(Br)ccc1F [Example 44a, C-[3-(5-Bromo-2-fluoro-benzyl)-5-(2,4-dichloro-phenyl)-3H-imid-azol-4-yl]-methyl-amine]
IC50 [2]: 30.7 µM

NCc1c(-c2ccc(F)cc2F)ncn1Cc1ccco1 [Example 72a, C-[5-(2,4-Difluoro-phenyl)-3-furan-2-ylmethyl-3H-imidazol-4-yl]-methylamine]
IC50 [2]: 11.8 µM

NCc1c(-c2ccc(Cl)cc2Cl)ncn1CC1CCCO1 (centres unmarked) [Example 17b, C-[5-(2,4-dichloro-phenyl)-3-(tetrahydro-furan-2-ylmethyl)-3H-imidazol-4-yl]-methylamine]
IC50 [1]: 1.9 µM

CC(N)c1c(-c2ccc(Cl)cc2Cl)ncn1Cc1ccccc1 (centres unmarked) [109b, 1-[3-Benzyl-5-(2,4-dichloro-phenyl)-3H-imidazol-4-yl]-ethylamine]
IC50 [1]: 7.3 µM

COc1cccc(Cn2cnc(-c3ccc(F)cc3Cl)c2CN)c1 [Example 9a, C-[5-(2-Chloro-4-fluoro-phenyl)-3-(3-methoxy-benzyl)-3H-imid-azol-4-yl]-methyl-amine]
IC50 [2]: 16.3 µM

NCc1c(-c2ccc(F)cc2F)ncn1Cc1cccnc1 [Example 89a, C-[5-(2,4-Difluoro-phenyl)-3-pyri-din-3-yl-methyl-3H-imid-azol-4-yl]-methyl-amine]
IC50 [2]: 22.6 µM

CC(O)Cn1cnc(-c2ccc(Cl)cc2Cl)c1CN (centres unmarked) [72b, 1-[5-Aminomethyl-4-(2,4-dichloro-phenyl)-imidazol-1-yl]-propan-2-ol]
IC50 [1]: 20.8 µM

NCc1c(-c2ccc(Cl)cc2Cl)ncn1CCCCCCO [16b, 6-[5-Aminomethyl-4-(2,4-dichloro-phenyl)-imidazol-1-yl]-hexan-1-ol]
IC50 [1]: 12.7 µM

NCc1c(-c2ccc(Cl)cc2Cl)ncn1Cc1ccccc1C(F)(F)F [Example 51a, C-[5-(2,4-Dichloro-phenyl)-3-(2-tri-fluoromethyl-benzyl)-3H-imid-dazol-4-yl]-methyl-amine]
IC50 [2]: 3.7 µM

NCc1c(-c2ccc(Cl)cc2Cl)ncn1CCC1=CCCCC1 [65b, C-[3-(2-Cyclohex-1-enyl-ethyl)-5-(2,4-dichloro-phenyl)-3H-imidazol-4-yl]-methylamine]
IC50 [1]: 2.8 µM

NCc1c(-c2ccc(Cl)cc2Cl)ncn1Cc1c(F)cccc1Cl [123b, C-[3-(2-Chloro-6-fluoro-benzyl)-5-(2,4-dichloro-phenyl)-3H-imidazol-4-yl]-methylamine]
IC50 [1]: 1.9 µM

Cc1ccc(Cn2cnc(-c3ccc(Cl)cc3Cl)c2CN)cc1 [Example 56a, C-[5-(2,4-Dichloro-phenyl)-3-(4-methyl-benzyl)-3H-imid-azol-4-yl]-methyl-amine]
IC50 [2]: 2.8 µM

NCc1c(-c2ccc(F)cc2Cl)ncn1Cc1cccc(F)c1 [Example 10a, C-[5-(2-Chloro-4-fluoro-phenyl)-3-(3-fluoro-benzyl)-3H-imid-azol-4-yl]-methyl-amine]
IC50 [2]: 14.5 µM

Cc1[nH]ncc1CCCn1cnc(-c2ccc(Cl)cc2Cl)c1CN [87b, C-{5-(2,4-Dichloro-phenyl)-3-[3-(5-methyl-1H-pyrazol-4-yl)-propyl]-3H-imidazol-4-yl}-methylamine]
IC50 [1]: 8.2 µM

COc1ccc(Cn2cnc(-c3ccc(Cl)cc3Cl)c2C(C)N)cc1OC (centres unmarked) [95b, 1-[5-(2,4-Dichloro-phenyl)-3-(3,4-dimethoxy-benzyl)-3H-imidazol-4-yl]-ethylamine]
IC50 [1]: 19.9 µM

NCc1c(-c2ccc(Cl)cc2Cl)ncn1CCOc1ccccc1 [100b, C-[5-(2,4-Dichloro-phenyl)-3-(2-phenoxy-ethyl)-3H-imidazol-4-yl]-methylamine]
IC50 [1]: 34.3 µM

NCc1c(-c2ccc(F)cc2F)ncn1Cc1ccccc1Cl [Example 73a, C-[3-(2-Chloro-benzyl)-5-(2,4-difluoro-phenyl)-3H-imid-azol-4-yl]-methyl-amine]
IC50 [2]: 27.1 µM

NCc1c(-c2ccc(Cl)cc2Cl)ncn1CCCNC1CCCCC1 [19b, {3-[5-Aminomethyl-4-(2,4-dichloro-phenyl)-imidazol-1-yl]-propyl}-cyclohexyl-amine]
IC50 [1]: 45.1 µM

CC(N)c1c(-c2ccc(Cl)cc2Cl)ncn1Cc1ccc(F)c(F)c1 (centres unmarked) [68b, 1-[5-(2,4-Dichloro-phenyl)-3-(3,4-difluoro-benzyl)-3H-imidazol-4-yl]-ethylamine]
IC50 [1]: 26.2 µM

NCc1c(-c2ccc(Cl)cc2Cl)ncn1CCN1CCOCC1 [10b, C-[5-(2,4-Dichloro-phenyl)-3-(2-morpholin-4-yl-ethyl)-3H-imidazol-4-yl]-methylamine]
IC50 [1]: 12.7 µM

COc1ccc(Cn2cnc(-c3ccc(Cl)cc3Cl)c2CN)cc1 [35b, C-[5-(2,4-Dichloro-phenyl)-3-(4-methoxy-benzyl)-3H-imidazol-4-yl]-methylamine]
IC50 [1]: 11.8 µM

NCc1c(-c2ccc(Cl)cc2Cl)ncn1Cc1ccc2c(c1)OCO2 [Example 48a, C-[3-Ben-zo[1,3]di-oxol-5-yl-methyl-5-(2,4-dichloro-phenyl)-3H-imid-azol-4-yl]-methyl-amine]
IC50 [2]: 0.1 µM

COCCn1cnc(-c2ccc(Cl)cc2Cl)c1CN [60b, C-[5-(2,4-Dichloro-phenyl)-3-(2-methoxy-ethyl)-3H-imidazol-4-yl]-methylamine]
IC50 [1]: 20.8 µM

CCCCCCn1cnc(-c2ccc(Cl)cc2Cl)c1C(C)N (centres unmarked) [61b, 1-[5-(2,4-Dichloro-phenyl)-3-hexyl-3H-imidazol-4-yl]-ethylamine]
IC50 [1]: 40.6 µM

NCc1c(-c2ccc(Cl)cc2Cl)ncn1Cc1cccc(C(F)(F)F)c1F [50b, C-[5-(2,4-Dichloro-phenyl)-3-(2-fluoro-3-trifluoromethyl-benzyl)-3H-imidazol-4-yl]-methylamine]
IC50 [1]: 15.4 µM

CCCCCn1cnc(-c2ccc(Cl)cc2Cl)c1C(C)N (centres unmarked) [115b, 1-[5-(2,4-Dichloro-phenyl)-3-pentyl-3H-imidazol-4-yl]-ethylamine]
IC50 [1]: 29.8 µM

CCOc1ccccc1Cn1cnc(-c2ccc(F)cc2F)c1CN [Example 82a, C-[5-(2,4-Difluoro-phenyl)-3-(2-ethoxy-benzyl)-3H-imid-azol-4-yl]-methyl-amine]
IC50 [2]: 14.5 µM

COc1cccc(Cn2cnc(-c3ccc(F)cc3F)c2CN)c1 [Example 77a, C-[5-(2,4-Difluoro-phenyl)-3-(3-methoxy-benzyl)-3H-imid-azol-4-yl]-methyl-amine]
IC50 [2]: 24.4 µM

CCCn1cnc(-c2ccc(Cl)cc2Cl)c1CN [Example 40a, C-[5-(2,4-Dichloro-phenyl)-3-pro-pyl-3H-imid-azol-4-yl]-methyl-amine]
IC50 [2]: 3.7 µM

NCc1c(-c2ccc(F)cc2Cl)ncn1Cc1cccc(Cl)c1Cl [Example 20a, C-[5-(2-Chloro-4-fluoro-phenyl)-3-(2,3-di-chloro-benzyl)-3H-imid-azol-4-yl]-meth-ylamine]
IC50 [2]: 34.3 µM

NCc1c(-c2ccc(F)cc2Cl)ncn1Cc1cccs1 [Example 1a, C-[5-(2-Chloro-4-fluoro-phenyl)-3-thio-phen-2-yl-methyl-3H-imid-azol-4-yl]-methyl-amine]
IC50 [2]: 11.8 µM
